Reference: US20260193258A1, “AGENT FOR PROMOTING PHOSPHORYLATION OF eIF2a” (ER Stress Research Institute, Inc., priority 2019, published 2026)

What was measured:
eIF2α = eIF2α phosphorylation-promoting activity (western blotting of 293A cell lysates); format: cell-based; conditions: 293A cells, 16 hours at 37° C., Compound No. 1 at 5 μM, halofuginone at 50 nM, thapsigargin at 200 nM, FIG. 3
Procedure: • Host cells: 293A cells • Evaluation compound: Compound No. 1 of the present invention was used, and […] thereof was dissolved in 20 μL of DMSO to prepare a 20 mM solution. • Thapsigargin: (Cayman Chemical Company)
10 mg was dissolved in 76.8 mL of DMSO to prepare a 200 μM solution. • Halofuginon: (Cayman Chemical Company)
5 mg was dissolved in 554.2 μL of DMSO to prepare a 20 mM solution.
The above-mentioned 293A cells were seeded in a 96-well plate at 5×10^5 cells/well, and were cultured overnight in a DMEM solution of 10% fetal bovine serum (FBS). The next day, the medium was changed to a DMEM solution of 10% fetal bovine serum (FBS) containing Compound No. 1 at 5 μM, halofuginone at 50 nM, or thapsigargin at 200 nM, and the cells were cultured at 37° C. for 16 hours. After the cells had been washed with a PBS buffer, the cells were lysed with a RIPA buffer to extract proteins, and the proteins were separated according to size by an electrophoresis method of SDS-PAGE. The expression amount of an endoplasmic reticulum stress marker was measured by a western blotting method.

human topoisomerase I = target: T1, human topoisomerase I (Homo sapiens, UniProt P11387); assay: Human topoisomerase I DNA relaxation assay (ProFoldin kit); format: biochemical; conditions: 5 μL of evaluation sample solution (100 μM), fluorescence 485/535 nm, FIG. 4
T1 construct: purchased ProFoldin HRA100KE
T1 sequence (P11387 1-765): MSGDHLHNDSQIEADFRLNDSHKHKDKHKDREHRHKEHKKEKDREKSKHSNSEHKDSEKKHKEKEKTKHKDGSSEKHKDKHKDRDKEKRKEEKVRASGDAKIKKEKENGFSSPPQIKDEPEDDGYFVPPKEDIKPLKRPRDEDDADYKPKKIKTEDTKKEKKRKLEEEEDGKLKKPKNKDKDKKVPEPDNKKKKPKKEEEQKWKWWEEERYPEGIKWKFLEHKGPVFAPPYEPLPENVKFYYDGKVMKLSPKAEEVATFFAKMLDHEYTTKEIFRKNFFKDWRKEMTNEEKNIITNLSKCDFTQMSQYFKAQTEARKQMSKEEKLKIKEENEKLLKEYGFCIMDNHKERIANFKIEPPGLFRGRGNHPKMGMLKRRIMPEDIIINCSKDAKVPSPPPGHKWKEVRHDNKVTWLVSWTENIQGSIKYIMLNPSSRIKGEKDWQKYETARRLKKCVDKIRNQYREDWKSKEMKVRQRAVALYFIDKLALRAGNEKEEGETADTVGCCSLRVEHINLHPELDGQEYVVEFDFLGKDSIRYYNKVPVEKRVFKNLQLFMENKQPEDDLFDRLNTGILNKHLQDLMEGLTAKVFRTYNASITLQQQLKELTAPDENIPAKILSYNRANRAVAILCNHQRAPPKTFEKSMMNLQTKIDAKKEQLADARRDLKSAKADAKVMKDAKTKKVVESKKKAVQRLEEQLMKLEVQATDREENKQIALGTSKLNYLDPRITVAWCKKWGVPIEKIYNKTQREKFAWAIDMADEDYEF
Procedure: (§1) • Evaluation compound: Compound No. 1 of the present invention was used, and […] thereof was dissolved in 20 μL of DMSO to prepare a 20 mM solution. • Camptothecin: (FUJIFILM Wako Pure Chemical Corporation) 100 mg was dissolved in 57.4 mL of DMSO to prepare a 5 mM solution. • Etoposide: (FUJIFILM Wako Pure Chemical Corporation) 25 mg was dissolved in 424.8 μL of DMSO to prepare a 100 mM solution. • Human topoisomerase I/DNA relaxation assay kit […] (Manufactured by ProFoldin) • Human topoisomerase II/DNA relaxation assay kit HD[…] (Manufactured by ProFoldin) Measurement was performed in accordance with an instruction manual of ProFoldin. […] After the reaction, centrifugation was performed at 1,300 rpm for 30 seconds, and the reaction liquid was poured into a spin-column. The spin-column was rotated at 1,300 rpm for 2 minutes, and the liquid that had flowed out of the column was poured into a 96-well black plate. The liquid that had flowed out was subjected to a reaction by adding a fluorescent dye solution (up to 150 μL). The intensity of fluorescence excited with light at 485 nm was measured at 535 nm.

human topoisomerase II = assay: Human topoisomerase II DNA relaxation assay (ProFoldin kit); format: biochemical; conditions: 5 μL of evaluation sample solution (100 μM), fluorescence 485/535 nm, FIG. 4
Procedure: as §1

mouse naive CD4+ T cells = assay: Th17 cell differentiation-suppressing activity (flow cytometry); format: cell-based; conditions: Compound No. 1 at 5 μM, halofuginone at 50 nM, 5 days of differentiation culture, FIG. 5
Procedure: Evaluation compound: Compound No. 1 of the present invention was used, and […] thereof was dissolved in 20 μL of DMSO to prepare a 20 mM solution. • Halofuginon: (Cayman Chemical Company)
5 mg was dissolved in 554.2 μL of DMSO to prepare a 20 mM solution. • Th17 cell inducer: A Th17 cell differentiation induction kit containing IL-6 and TGFβ1 as main components (CellXVivo Mouse Th17 Cell Differentiation Kit: R&D Systems) • Mouse helper T cell differentiation induction kit CDK017 (Techne Corporation)
Measurement was performed in accordance with an instruction manual of Techne Corporation. First, a cell culture plate was coated with an anti-hamster CD3 antibody. Mouse spleen cells were isolated into single cells, and mouse naive CD4^+ T cells were isolated using a mouse naive CD4^+ T cell isolation kit (MagCellect). The number of cells was counted. The isolated mouse naive CD4^+ T cells were dispersed in a mouse Th17 differentiation medium at 1×10^6 cells/mL. Compound No. 1 and halofuginone were added to the mouse Th17 differentiation medium at 5 μM and 50 nM, respectively. Next, the medium having the cells dispersed therein was added to the plate coated with the anti-hamster CD3 antibody, and humidified culture was continued for 3 days at 37° C. in the presence of 5% CO2. On the 3rd day, the medium was refreshed by adding an equal amount of the mouse Th17 differentiation medium without removing the original culture medium. Humidified culture was continued for 2 days at 37° C. in the presence of 5% CO2. After the 5 days of differentiation culture, the differentiated mouse Th17 cells were subjected to flow cytometry to analyze the expression of cytokines, and the number of cells differentiated into Th17 cells was determined.

Row | Molecule | eIF2α phosphorylation-promoting effect (phosphorylated eIF2α expression amount) (eIF2α) | topoisomerase-inhibiting activity, human topoisomerase I (human topoisomerase I) | topoisomerase-inhibiting activity, human topoisomerase II (human topoisomerase II) | suppression of differentiation from mouse naive CD4+ T cells into Th17 cells (mouse naive CD4+ T cells) | other results
1 | C/C=C(/C)C(=O)O[C@H]1C(C)=C2[C@H]([C@@H]1OC(=O)CCCCCCC)[C@@](C)(OC(C)=O)C[C@H](OC(=O)CCC)[C@@]1(O)[C@H]2OC(=O)[C@@]1(C)O [thapsigargin, reference compound] | eIF2α phosphorylation-promoting effect |  |  |  | 
2 | CC[C@@]1(O)C(=O)OCc2c1cc1n(c2=O)Cc2cc3ccccc3nc2-1 [camptothecin, reference compound] |  | remarkably reduced topoisomerase I activity |  |  | 
3 | COc1cc([C@@H]2c3cc4c(cc3[C@@H](O[C@@H]3O[C@@H]5CO[C@@H](C)O[C@H]5[C@H](O)[C@H]3O)[C@H]3COC(=O)[C@H]23)OCO4)cc(OC)c1O [etoposide, reference compound] |  |  | remarkably reduced topoisomerase II activity |  | 
4 | 1-(2-chloro-5-methylphenyl)-4-oxo-7-(4-pyridyl)-naphthyridine [Compound No. 1] | had an eIF2α phosphorylation-promoting effect | did not show topoisomerase-inhibiting activity | did not show topoisomerase-inhibiting activity | remarkably suppressed differentiation | eIF2α phosphorylation-promoting effect (phosphorylated eIF2α expression amount) (eIF2α; listed as No. 1): eIF2α phosphorylation-promoting effect; topoisomerase-inhibiting activity, human topoisomerase I (human topoisomerase I; listed as No. 1): free of topoisomerase-inhibiting activity; topoisomerase-inhibiting activity, human topoisomerase II (human topoisomerase II; listed as No. 1): free of topoisomerase-inhibiting activity; suppression of differentiation from mouse naive CD4+ T cells into Th17 cells (mouse naive CD4+ T cells; listed as No. 1): has Th17 cell differentiation-suppressing activity
5 | O=C(CC1NCCCC1O)Cn1cnc2cc(Br)c(Cl)cc2c1=O (stereo not shown) [halofuginone, reference compound] | eIF2α phosphorylation-promoting effect |  |  | capable of inhibiting the induction of differentiation into Th17 cells | 
